In PubChem BioAssay (NCI):
Several values for one entry are separate records, joined by “and”; a condition that tells them apart may be missing. Equal entries are not always repeated.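 All cell lines were grown in 96-well plates and treated with compound for 48 hours. Here, GI50 denotes the concentration required for 50% inhibition of growth. TGI is the concentration that stops growth completely.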

Legend:
Test in all cases: growth of human tumour cells (NCI), 48 h
ACHN renal = test system: ACHN renal
NCI-H23 lung = test system: NCI-H23 lung
TK-10 renal = test system: TK-10 renal
NCI-H226 lung = test system: NCI-H226 lung
K-562 leukemia = test system: K-562 leukemia
SW-620 colon = test system: SW-620 colon
SK-MEL-28 melanoma = test system: SK-MEL-28 melanoma
HCT-116 colon = test system: HCT-116 colon
KM12 colon = test system: KM12 colon
OVCAR-5 ovarian = test system: OVCAR-5 ovarian

Row | Structure (SMILES) | GI50 (ACHN renal) | TGI (ACHN renal) | GI50 (NCI-H23 lung) | TGI (NCI-H23 lung) | GI50 (TK-10 renal) | TGI (TK-10 renal) | GI50 (NCI-H226 lung) | TGI (NCI-H226 lung) | GI50 (K-562 leukemia) | TGI (K-562 leukemia) | GI50 (SW-620 colon) | TGI (SW-620 colon) | GI50 (SK-MEL-28 melanoma) | TGI (SK-MEL-28 melanoma) | GI50 (HCT-116 colon) | TGI (HCT-116 colon) | GI50 (KM12 colon) | TGI (KM12 colon) | GI50 (OVCAR-5 ovarian) | TGI (OVCAR-5 ovarian)
1 | Cc1cc(N(CCOS(C)(=O)=O)CCOS(C)(=O)=O)ccc1C(=O)O | 50 µM | > 100 µM | 98.2 µM | > 100 µM | > 100 µM | > 100 µM | > 100 µM | > 100 µM | > 100 µM | > 100 µM | > 100 µM | > 100 µM | > 100 µM | > 100 µM | > 100 µM | > 100 µM | > 100 µM | > 100 µM | > 100 µM | > 100 µM
2 | COC(=O)c1c(-c2cccs2)oc(-c2cccs2)c1C(=O)OC | > 70.2 µM | > 100 µM | 29.6 µM | 97.7 µM | 27.9 µM | 82 µM | 38.2 µM | 98.3 µM | 44.9 µM | > 100 µM | 31 µM | > 100 µM | 56.7 µM | > 100 µM | 30.3 µM | > 100 µM | 32.5 µM | > 100 µM | > 95 µM | > 100 µM
3 | COc1cccc2cc(N(C)c3nc(C)nc4c3CCC4)ccc12 | < 0.01 µM | 13.7 µM | < 0.01 µM | 18 µM | 9.32 µM | 30.5 µM | 12.7 µM | 32.4 µM | < 0.01 µM | 31.5 µM | < 0.01 µM | 18.6 µM | 4.7 µM | 21.6 µM | < 0.01 µM | 10.4 µM | < 0.01 µM | 10.7 µM | < 0.01 µM | 19.6 µM
4 | C/C(CN1C(=O)c2ccccc2C1=O)=N\NS(=O)(=O)c1cccc(C(=O)O)c1 |  | > 100 µM |  | > 100 µM |  | > 100 µM |  | > 100 µM |  | > 100 µM |  | > 100 µM |  | > 100 µM |  | > 100 µM |  | > 100 µM |  | > 100 µM
5 | COc1ccc(-c2nc(-c3nc4ccc(C)cc4[nH]3)cc3c2[nH]c2ccccc23)cc1 | 3.05 µM | > 100 µM | 5.36 µM | > 100 µM | 5.45 µM | > 100 µM | 4.81 µM | 58.7 µM | 3.09 µM | > 100 µM | 6.23 µM | > 100 µM | 5 µM | > 100 µM | 3.55 µM | 40.6 µM | 3.26 µM | 14 µM | 6.83 µM | > 100 µM
6 | COc1ccc(-c2cncn2-c2cc(OC)c(OC)c(OC)c2)cc1 | 0.366 µM | 49.4 µM | 0.659 µM | > 43.7 µM | 0.139 µM | 27.1 µM | 1.97 µM | 82.6 µM | 0.443 µM | > 100 µM | 0.0585 µM | > 100 µM | 11.3 µM | > 100 µM |  | 4.78 µM | 0.0224 µM | 1.53 µM | 0.318 µM | > 100 µM
7 | COc1ccc(-c2cc3c(C)nc(N)nc3n(C3CCC(OCCO)CC3)c2=O)cn1 (centres undefined) | 0.0971 µM and 0.0973 µM | > 6.33 µM | 0.156 µM and 0.0977 µM | > 6.91 µM | 0.026 µM and 0.0264 µM | 0.235 µM and 0.197 µM | 0.0742 µM and 0.105 µM | > 2.19 µM and 0.946 µM | 0.593 µM and 0.36 µM | > 100 µM | 0.181 µM and 0.162 µM | > 10 µM | 0.0517 µM and 0.074 µM | 0.425 µM and 0.604 µM | 0.243 µM and 0.222 µM | > 10 µM and 18.9 µM | 0.231 µM and 0.209 µM | 3.9 µM and 2.92 µM | 0.0734 µM and 0.0489 µM | 1.95 µM and 1.02 µM
8 | O=[N+]([O-])c1ccc(Cl)c(CNc2ncnc3c2ncn3C2CCCCO2)c1 (centres undefined) |  | > 100 µM |  | > 100 µM |  | > 100 µM |  | 86.6 µM |  | > 100 µM |  | > 100 µM |  | > 100 µM |  | > 100 µM |  | > 100 µM |  | > 100 µM
9 | COc1ccc(C2=Nc3ccccc3SC(C)C2)cc1OC (centres undefined) |  | 58.1 µM |  | 38.5 µM |  | 79.4 µM |  | 36.6 µM |  | 56.6 µM |  | 18.6 µM |  | 56.6 µM |  | 32.1 µM |  | 36.3 µM |  | 52.6 µM
10 | Cc1ccc([N+](=O)[O-])c2c(NCCNC(=O)c3cc(C(=O)NCCNc4ccnc5c(C)ccc([N+](=O)[O-])c45)n(C)n3)ccnc12 |  | > 100 µM |  | > 100 µM |  | > 100 µM |  | > 100 µM |  | > 76.4 µM |  | 53.4 µM |  | > 78 µM |  | > 100 µM |  | > 100 µM |  | > 100 µM
11 | COc1ccccc1NC(=O)C1=C(C)NC(C)=C(C(=O)Nc2ccccc2OC)C1/C=C/c1ccccc1 |  | > 100 µM |  | > 100 µM |  | > 100 µM |  | > 100 µM |  | > 100 µM |  | > 100 µM |  | > 100 µM |  | > 100 µM |  | > 100 µM |  | > 100 µM
12 | Cc1cccc(C(=O)O)c1C(=O)c1cccc2ccccc12 |  | > 100 µM |  | > 100 µM |  | > 100 µM |  | > 100 µM |  | > 100 µM |  | > 100 µM |  | > 100 µM |  | > 100 µM |  | > 100 µM |  | > 100 µM
13 | CC/C(Cc1ccccc1)=C(\c1ccc(OCCN2CCCC2)cc1)c1ccc(OC(=O)NCc2ccccc2)cc1 | 1.69 µM | 3.06 µM | 3.43 µM | 13.7 µM | 1.76 µM | 3.5 µM | 3.52 µM | 14.2 µM | 1.7 µM | 4.4 µM | 1.93 µM | 3.77 µM | 1.72 µM | 3.18 µM | 1.64 µM | 3 µM | 1.92 µM | 3.81 µM | 1.93 µM | 4.65 µM
14 | CCCOC(=O)c1c(C)n(C)c2scc[n+]12 | > 100 µM | > 100 µM | 34.2 µM | > 100 µM | > 100 µM | > 100 µM | 62.3 µM | > 100 µM | 21 µM | > 100 µM | 67.4 µM | > 100 µM | > 100 µM | > 100 µM | 35.8 µM | > 100 µM | 44.5 µM | > 100 µM | > 100 µM | > 100 µM
15 | CCOC(=O)/C(=C/c1cccc(Cl)c1)N(CC)CC |  | > 100 µM |  | > 100 µM |  | > 100 µM |  | > 100 µM |  | > 100 µM |  | > 100 µM |  | > 100 µM |  | > 100 µM |  | > 100 µM |  | > 100 µM
